{
  "source": "paper PMC5120274",
  "about": "“Characterization of the Annonaceous acetogenin, annonacinone, a natural product inhibitor of plasminogen activator inhibitor-1” (Scientific Reports, 2016)",
  "key": {"PAI-1 [1]": {"target": "T1, PAI-1 (Homo sapiens, UniProt P05121)", "T1 construct": "purchased Stago BNL (Asnières sur Seine, FR)", "T1 sequence (P05121 24-402)": "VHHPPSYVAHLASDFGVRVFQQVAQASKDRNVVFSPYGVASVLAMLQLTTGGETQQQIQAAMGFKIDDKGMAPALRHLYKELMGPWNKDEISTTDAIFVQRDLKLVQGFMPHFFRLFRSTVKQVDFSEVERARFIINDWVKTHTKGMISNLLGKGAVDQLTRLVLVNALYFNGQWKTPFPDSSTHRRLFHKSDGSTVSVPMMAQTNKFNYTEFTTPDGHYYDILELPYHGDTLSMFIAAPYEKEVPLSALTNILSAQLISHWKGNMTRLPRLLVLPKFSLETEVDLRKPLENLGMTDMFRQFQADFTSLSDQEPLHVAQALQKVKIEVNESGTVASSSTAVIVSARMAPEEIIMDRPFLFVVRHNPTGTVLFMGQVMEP", "assay": "chromogenic screening assay: rate of tPA inhibition by PAI-1 (spectrozyme tPA hydrolysis)", "type": "biochemical", "settings": "mean ± SEM", "protocol": "(§1) Compounds from our local collection BioCIS and from the Prestwick compound library (Prestwick chemicals, Illkirch, FR), a collection containing only FDA approved drugs (around 4000 compounds in total) were tested in a chromogenic assay measuring the inhibition rate of tPA-catalyzed spectrozyme® tPA hydrolysis in the presence of PAI-1. Compounds (20 μL, final concentration 50 μM, 1% DMSO) were dispensed in a 96 well half area Greiner plate. A mixture containing 20 μL of PAI-1 (final concentration 20 nM) and 80 μL of Spectrozyme-tPA (final concentration 400 μM) was then added, and the mixture pre-incubated for 45 minutes at 37 °C. At the end of pre-incubation time, 90 μL of the mixture were added to another 96 well half area plate containing 10 μL tPA (final concentration 10 nM). The kinetic was then measured at 405 nm for 45 min at 37 °C in an Envision microplate reader. Progress curves were fitted using the pseudo first order equation to determine the apparent rate constant k."}, "tPA": {"test_system": "T2, tPA", "T2 construct": "purchased Stago BNL (Asnières sur Seine, FR)", "assay": "tPA-catalyzed substrate hydrolysis without PAI-1 (control)", "type": "biochemical, human", "settings": "control without PAI-1", "protocol": "as §1, with “inhibition rate of tPA-catalyzed spectrozyme® tPA hydrolysis in the presence of PAI-1.” left out, “A mixture containing 20 μL of PAI-1 (final concentration 20 nM) and 80 μL of Spectrozyme-tPA (final concentration 400 μM) was then added, and the mixture pre-incubated for 45 minutes at 37 °C.” left out"}, "human α1-antitrypsin": {"test_system": "T3, human α1-antitrypsin", "T3 construct": "purchased Sigma", "assay": "continuous chromogenic assay: inhibition of neutrophil elastase by α1-antitrypsin", "type": "biochemical", "settings": "α1-antitrypsin pre-incubated with 50 μM annonacinone 20 min 37 °C; untreated 1.2 × 10^−3", "protocol": "5 μM human α1-antitrypsin (Sigma) or human antithrombin (Aclotin®, LFB) were incubated with 50 μM annonacinone (or 0.5% DMSO in reaction buffer as control) for 20 min at 37 °C. The mixtures containing α1-antitrypsin were diluted in N-Methoxysuccinyl-Ala-Ala-Pro-Val p-nitroanilide (Sigma) containing solution and substrate hydrolysis kinetic was triggered by addition of neutrophil elastase (Sigma) to a final volume of 100 μL containing 13 nM α1-antitrypsin, 130 nM annonacinone, 82 μM chromogenic substrate and 5 nM neutrophil elastase. The mixtures containing antithrombin were diluted in fondaparinux (Arixtra®, GlaxoSmithKline) and CS-11(22)-FXa (Hyphen Biomed) containing solution and substrate hydrolysis kinetic was triggered by addition of factor Xa (Stago BNL) to a final volume of 100 μL containing 51 nM antithrombin, 510 nM annonacinone, 200 μM chromogenic substrate, 5 μM fondaparinux and 2 nM factor Xa."}, "PAI-1 [2]": {"target": "T1, PAI-1", "assay": "thromboelastography (TEG) on pooled human plasma with tPA and PAI-1", "type": "biochemical", "protocol": "20 μL of CaCl2 (0.2 M), 10 μL of PAI-1 (final concentration 22 nM) and 10 μL of tested compounds were added in a TEG cup and pre-incubated for 20 min at room temperature. On the other hand, 1 mL of pooled citrated normal human plasma (pool of at least 10 healthy donors) was added to a vial containing 20 μL of Kaolin. 680 μl of the plasma/Kaolin mixture were then added to 20 μL of tPA (final concentration 9 nM). At the end of pre-incubation time, 320 μL of the plasma/tPA/kaolin mixture were transferred into the TEG cup and the thromboelastogram measured."}, "PAI-1/tPA complex": {"test_system": "T4, PAI-1/tPA complex", "T4 construct": "purchased Stago BNL (Asnières sur Seine, FR)", "assay": "PAI-1/tPA complex formation on SDS-PAGE", "type": "biochemical, human", "settings": "PAI-1 pre-incubated with annonacinone 30 min 37 °C", "protocol": "PAI-1 (4 μL, 1 μM) was pre-incubated with 16 μL annonacinone (2% DMSO) for 30 min at 37 °C. Human tPA (4 μL, 0.5 μM) was then added to the mixture and incubated for 15 min at 37 °C. Reaction was stopped by addition of 4X SDS-PAGE loading buffer followed by immediate boiling. Samples were then analyzed on SDS-PAGE followed by silver staining."}, "PAI-1 [3]": {"test_system": "T5, PAI-1", "T5 construct": "purchased Stago BNL (Asnières sur Seine, FR)", "assay": "elastase mediated cleavage of PAI-1 (latency transition) on SDS-PAGE", "type": "biochemical, human", "settings": "up to 50 μM", "protocol": "Selective cleavage of active PAI-1 by elastase was observed on SDS-PAGE. PAI-1 (5 μL, 2 μM) was incubated with or without compounds (200 μM, 5 μL, 5% DMSO) for 15 min at 37 °C. Elastase (5 μL, 1.4 μM) was then added and further incubated for 15 min at 37 °C. Reaction was stopped by addition of 4X loading buffer containing SDS and BME followed by immediate boiling. Samples were then analyzed on SDS-PAGE followed by silver staining."}, "PAI-1 [4]": {"test_system": "T5, PAI-1", "assay": "native PAGE analysis of PAI-1 polymerization", "type": "biochemical, human", "settings": "increasing concentrations up to 50 μM, 30 min 37 °C", "protocol": "PAI-1 (1 μM) was mixed with various concentration of annonacinone or DMSO 1% for 30 min at 37 °C. Samples were mixed with 1/3 volume of native gel sample buffer or LDS sample buffer. The former were subjected to BN-PAGE and the latter were fractioned by SDS-PAGE. Proteins band were visualized by silver staining."}, "PAI-1 D95A": {"test_system": "T6, PAI-1 D95A", "T6 construct": "made in house", "assay": "chromogenic screening assay with PAI-1 mutant D95A", "type": "biochemical", "settings": "ratio of kapp relative to WT (100%)", "protocol": "as §1\n(§2) Mutants were constructed as previously described. […] The effect of annonacinone was measured at 50 μM for each mutant in our chromogenic screening assay. […] For each mutant, the ratio between the apparent rate constants with and without 50 μM annonacinone were calculated and then compared to that of PAI-1 WT to determine the % of annonacinone activity."}, "PAI-1 R118A": {"test_system": "T7, PAI-1 R118A", "T7 construct": "made in house", "assay": "chromogenic screening assay with PAI-1 mutant R118A", "type": "biochemical", "protocol": "as §1, §2"}, "PAI-1 K122A": {"test_system": "T8, PAI-1 K122A", "T8 construct": "made in house", "assay": "chromogenic screening assay with PAI-1 mutant K122A", "type": "biochemical", "settings": "for Annonacinone activity 50 μM (% WT): ratio of kapp relative to WT (100%)", "protocol": "as §1\nMutants were constructed as previously described. Based on computer modelling, the following mutants were prepared, T79A, T94A, D95A, R118A and K122A. The effect of annonacinone was measured at 50 μM for each mutant in our chromogenic screening assay. Progress curves were fitted using the pseudo first order equation to determine the apparent rate constant k. For each mutant, the ratio between the apparent rate constants with and without 50 μM annonacinone were calculated and then compared to that of PAI-1 WT to determine the % of annonacinone activity."}, "[5]": {"settings": "compound 50 μM, tPA 9 nM + PAI-1 22 nM"}},
  "note": "Values joined by “and” are separate entries in the source; they are usually repeats but may differ in a detail not shown here. Equal values may be shown once.",
  "data": [
    {"compound": "CCCCCCCCCCCC[C@@H](O)[C@H]1CC[C@H]([C@H](O)CCCCC(=O)CCCCC[C@@H](O)CC2=C[C@H](C)OC2=O)O1", "note": "[Annonacinone]", "values": [
      {"measurement": "kapp Annonacinone 50 μM", "setting": "PAI-1 [1]; PAI-1 WT (Table 2 series), DMSO 1% 6,5 ± 0,6 × 10^−3, n = 4", "value": "9,6 ± 1,0 × 10^−4 s^−1"},
      {"measurement": "IC50", "setting": "PAI-1 [1]; chromogenic screening assay, without vitronectin, n = 3, read-out: IC50", "value": "9 ± 1", "unit": "µM"},
      {"measurement": "kapp 50 μM (apparent rate constant of tPA inhibition by PAI-1)", "setting": "PAI-1 [1]; compound 50 μM, 1% DMSO, PAI-1 20 nM, tPA 10 nM, DMSO 1% control 4.4 ± 0.3 × 10^-3, n = 3", "value": "6.4 ± 0.7 × 10^-4 s^-1"},
      {"measurement": "effect on tPA-catalyzed substrate hydrolysis without PAI-1", "setting": "tPA", "value": "no effect"},
      {"measurement": "kapp of neutrophil elastase inhibition by α1-antitrypsin", "setting": "human α1-antitrypsin", "value": 0.0011, "unit": "s⁻¹"},
      {"measurement": "IC50", "setting": "PAI-1 [2]; LY60 of three independent experiments plotted against concentration, read-out: IC50 from LY60 values", "value": "2.3 ± 1", "unit": "µM"},
      {"measurement": "effect on maximal amplitude (MA) and parameters of clot formation (R, K, angle)", "setting": "PAI-1 [2]; TEG, human plasma", "value": "no significant effect"},
      {"measurement": "Angle", "setting": "PAI-1 [2]; [5]", "value": 73.5, "unit": "°"},
      {"measurement": "K (clot formation time)", "setting": "PAI-1 [2]; [5]", "value": 1.6, "unit": "min"},
      {"measurement": "MA (maximal amplitude)", "setting": "PAI-1 [2]; [5]", "value": 21.4, "unit": "mm"},
      {"measurement": "R (clotting time)", "setting": "PAI-1 [2]; [5]", "value": 6, "unit": "min"},
      {"measurement": "LY30 (clot lysis 30 minutes after maximal amplitude)", "setting": "PAI-1 [2]; compound 50 μM, tPA 9 nM + PAI-1 22 nM, tPA alone 94.3%, tPA + PAI-1 0%", "value": 87.1, "unit": "%"},
      {"measurement": "LY60 (clot lysis 60 minutes after maximal amplitude)", "setting": "PAI-1 [2]; compound 50 μM, tPA 9 nM + PAI-1 22 nM, tPA alone 96.8%, tPA + PAI-1 0%", "value": "94% and 93.6%"},
      {"measurement": "effect on PAI-1/tPA covalent complex formation", "setting": "PAI-1/tPA complex", "value": "concentration-dependent inhibition"},
      {"measurement": "effect on latency transition of PAI-1", "setting": "PAI-1 [3]", "value": "No effects"},
      {"measurement": "effect on PAI-1 polymerization", "setting": "PAI-1 [4]", "value": "did not permit to show formation of PAI-1 polymers"},
      {"measurement": "Annonacinone activity 50 μM (% WT)", "setting": "PAI-1 D95A", "value": "163 ± 24", "unit": "% WT"},
      {"measurement": "kapp Annonacinone 50 μM", "setting": "PAI-1 R118A; DMSO 1% 6,0 ± 0,9 × 10^−3, n = 4", "value": "3,4 ± 0,3 × 10^−4 s^−1"},
      {"measurement": "Annonacinone activity 50 μM (% WT)", "setting": "PAI-1 R118A; ratio of kapp relative to WT (100%)", "value": "264 ± 40", "unit": "% WT"},
      {"measurement": "kapp Annonacinone 50 μM", "setting": "PAI-1 K122A; DMSO 1% 1,9 ± 0,3 × 10^−3, n = 4", "value": "3,5 ± 0,9 × 10^−4 s^−1"},
      {"measurement": "Annonacinone activity 50 μM (% WT)", "setting": "PAI-1 K122A", "value": "80 ± 13", "unit": "% WT"},
      {"measurement": "Annonacinone activity 50 μM (% WT)", "setting": "PAI-1 K122A; listed as annonacinone", "value": "no effect"}
    ]}
  ]
}
